Ends that are not written are not given here.
Columns and labels:
[1] = test system: lineage markers in CHA15 cells; assay: RNA-seq of CHA15 cells during ectodermal, mesodermal and endodermal differentiation with CPP-peptides (Fig. 7a); type: cell-based, Homo sapiens; details: CHA15, 5 days
Procedure: (§1) For CPP-conjugated peptide delivery, HeLa, 293T, and PA-1 cells were incubated with CPP-conjugated peptides or CPP-FITC at 2 μM in DMEM with 10% FBS for 12 h a day before cell harvest. hPSCs were treated with CPP-conjugated peptides at 10 μM in mTeSR Plus Medium, and the peptide-containing medium was changed every day over 10 days. The ROCK inhibitor (Tocris Bioscience, Y-27632) treated-hPSCs were dissociated into single cells using Accutase (Merck, SCR005) and differentiated into ectoderm, mesoderm, and endoderm using the STEMdiff Trilineage Differentiation Kit ([…] Technologies, 05230) following the manufacturer’s protocol. Differentiated cells treated with CPP-conjugated peptides were analysed at 0, 3, and 5 days for ectoderm and endoderm, and at 0, 3, and 4 days for mesoderm.
Total RNA concentration was calculated using Quant-IT RiboGreen (Invitrogen, R11490). […] The libraries were quantified using the KAPA Library Quantification Kits for Illumina Sequencing platforms according to the qPCR Quantification Protocol Guide (KAPA BIOSYSTEMS, KR0405) and qualified using the TapeStation D1000 ScreenTape (Agilent). […]
We pre-processed the raw reads from the sequencer to remove low-quality reads and adapter sequences before analysis and aligned the processed reads to Homo sapiens (GRCh37) using HISAT v2.1.0[52]. […]

[2] = test system: CHA15 cells transcriptome / NMD targets; assay: RNA-seq of CPP-P8/CPP-P1-treated CHA15 cells with siControl or siLIN28A (Supplementary Fig. 6e); type: cell-based, Homo sapiens
Procedure: as §1
Total RNA concentration was calculated using Quant-IT RiboGreen (Invitrogen, R11490). To assess the integrity of the total RNA, samples were run on a TapeStation RNA screentape (Agilent). Only high-quality RNA preparations with RNA integrity number greater than 7.0 were used for the RNA library construction. A library was independently prepared with 1 μg of total RNA from each sample using the Illumina TruSeq Stranded mRNA Sample Prep Kit (Illumina, 20020594). The first step in the workflow involves purifying poly‐A-containing mRNA molecules using poly‐T‐attached magnetic beads. Following purification, mRNA was fragmented into small pieces using divalent cations at elevated temperatures. The cleaved RNA fragments were copied into first-strand cDNA using SuperScript II reverse transcriptase (Invitrogen, 18064022) and random primers. This was followed by second-strand cDNA synthesis using DNA polymerase I, RNase H, and dUTP. These cDNA fragments underwent an end repair process, adding a single ‘A’ base and ligating the adapters. The products were purified and enriched via PCR to create the final cDNA library. The libraries were quantified using the KAPA Library Quantification Kits for Illumina Sequencing platforms according to the qPCR Quantification Protocol Guide (KAPA BIOSYSTEMS, KR0405) and qualified using the TapeStation D1000 ScreenTape (Agilent). Indexed libraries were then submitted to an Illumina NovaSeq (Illumina), and Macrogen Inc. performed paired-end (2 × 100 bp) sequencing.
We pre-processed the raw reads from the sequencer to remove low-quality reads and adapter sequences before analysis and aligned the processed reads to Homo sapiens (GRCh37) using HISAT v2.1.0[52]. HISAT utilises two indices for alignment (a global whole-genome index and tens of thousands of small local indexes). These two types of indices are constructed using the same Burrows-Wheeler transform (BWT)/graph FM index (GFM) as Bowtie2. The reference genome sequence of Homo sapiens (GRCh37) and the annotation data were downloaded from the NCBI database. Transcript assembly was processed using StringTie v1.3.4d[53],[54]. […] Differentially expressed genes (DEGs) were analysed by ratio of FPKM or using DESeq2 with read counts. Log2 fold-change value of the NMD targets[25],[32], three germ layer markers, miRNA targets, or SDGs was converted into cumulative frequency curve using the R function, ‘ecdf’ (version 4.0.5). Gene functional classification and Gene ontology (GO) were performed using g:Profiler[56]. […]
Scale bars, 100 μm . d (Corresponding to Fig. 6d) RT -qPCR was perform ed to evaluate the level of indicated transcripts upon the indicated peptide treatm ent in CHA15 cells. e T ranscriptom e analysis was perf orm ed using signif icantly changed transcripts (p < 0.05) f rom siLIN28A or siControl in the indicated CPP-peptide treated CHA15 cells. Scatter […]
(bottom panel), respectively. f Levels of m ature endogenous m iRNAs in CHA15 cells, which were regulated by LIN28A, were assessed using RT -qPCR. Cum ulative f raction of log2 fold change in the expression of genes regulated by let-7-5p and m iR-16- 5p was shown as CDF graphs. […]

His-LIN28A = molecular target: T1, His-LIN28A (Homo sapiens, UniProt Q9H9Z2); assay: SPR analyte-ligand binding screening of eight peptides (P1-P8); details: SPR screening at 15 μM, 3 min association, 6 min dissociation
T1 construct: purchased LS-bio LS-G637
T1 sequence (Q9H9Z2 1-209): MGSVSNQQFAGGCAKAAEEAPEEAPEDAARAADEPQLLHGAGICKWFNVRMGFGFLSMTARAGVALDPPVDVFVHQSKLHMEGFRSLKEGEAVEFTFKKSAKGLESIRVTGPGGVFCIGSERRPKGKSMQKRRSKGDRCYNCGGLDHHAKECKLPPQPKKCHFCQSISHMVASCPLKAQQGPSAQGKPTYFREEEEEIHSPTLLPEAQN
Procedure: For ligand immobilisation, the nitrilotriacetic acid (NTA) surface gold sensor chip (icluebio) was activated with 5 mM NiCl2 (Xantec) at a flow rate of 30 μL/min, following equalisation with 1× HBS-T buffer. His-LIN28A (LS-bio, LS-G637) was used as a ligand protein and was applied to a sensor chip at a flow rate of 10 μL/min for 40 min after dilution in 1× HEPES-buffered saline (HBS-T) buffer at a 1/20 ratio. Approximately 1000 resonance units (RU) were bonded to the sensor chip after ligand immobilisation. RU was measured using iMSPR-ProX (icluebio). An indigenous NTA sensor chip was used as a reference channel.
Analyte-ligand binding screening was performed by tethering the ligand and reference channels in the connected mode. […] After equalisation with 1× HBS-T buffer, the sensor chip was treated with each peptide for 3 min and then for 6 min with 1× HBS-T buffer for peptide dissociation.

[3] = CHA15, absence of LIN28A (siRNA)

| Sequence | ectodermal marker levels [1] | fraction deregulated in a LIN28A-independent manner ([2]; 7 (6+1) out of 95 (42+53)) | transcripts downregulated over 2-fold [2, 3] | transcripts upregulated over 2-fold [2, 3] | transcripts downregulated over 2-fold ([2]; CHA15, presence of LIN28A) | transcripts upregulated over 2-fold ([2]; CHA15, presence of LIN28A) | FEZF1-AS1 expression ([2]; CHA15, siControl) | LHX5-AS1 expression ([2]; CHA15, siControl) | LMO1 expression ([2]; CHA15, siControl) | CUZD1 expression ([2]; CHA15, siLIN28A) | CXCL5 expression ([2]; CHA15, siLIN28A) | MT2A expression ([2]; CHA15, siLIN28A) | transcriptome change in absence of LIN28A ([2]; hESCs, siLIN28A) | binding affinity vs others (His-LIN28A) |
| --- | --- | --- | --- | --- | --- | --- | --- | --- | --- | --- | --- | --- | --- | --- |
| KKKWCRKKKSSADEKRYRALKRTAERELLMNA [CPP-P8, CPP conjugated to P8] | overall reduced the levels of its marker, in contrast to mesodermal and endodermal differentiation | 7.4% | 2 transcripts | 12 | 53 transcripts | 42 transcripts | 20.4087 FPKM | 61.4319 FPKM | 15.1171 FPKM | 5.545 FPKM | 5.9 FPKM | 11.8304 FPKM | less impact on the transcriptome change, including NMD targets, in the absence of LIN28A | – |
| KKKWCRKKKSSADEKRYRALKRTAERELLMNA [P8] | – | – | – | – | – | – | – | – | – | – | – | – | – | significantly |

Reference: article PMC10762078, “Role of UPF1-LIN28A interaction during early differentiation of pluripotent stem cells” (Nature Communications, 2024)
